From patent publication US9925263B2, “Liquid pharmaceutical formulations for injection comprising procaine and uses thereof” (EAGLE BIOLOGICS, INC., priority 2013, dated 2018)
Counter-ions that a name gives are not always drawn.

What was measured:
biosimilar AVASTIN® = assay: Viscosity of aqueous solutions of biosimilar AVASTIN® with viscosity-lowering agents; format: physicochemical
Experimental: (unless otherwise indicated).
The protein was formulated to contain either 0.25 M phosphate buffer or 0.25 M CSAL.
Subsequently, the appropriate amount of viscosity-lowering agent was added to result in a final viscosity-lowering agent concentration of 0.15-0.35 M upon reconstitution.
The viscosity-lowering agent(s) were added in an amount sufficient to give concentration upon reconstitution as specified below. In cases of combinations of agents, the concentration of each component is 0.15 M. The protein solutions were then freeze-dried.

biosimilar ERBITUX® = assay: Viscosity of aqueous solutions of biosimilar ERBITUX® with viscosity-lowering agents; settings: for Fold Reduction: vs phosphate buffer
biosimilar RITUXAN® = assay: Viscosity of aqueous solutions of biosimilar RITUXAN® with viscosity-lowering agents; settings: […] agent, 25° C.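 Note: absolute viscosity of aqueous antibody solutions determined by microfluidic viscometry (mVROC chip, 50 micron channel) at several flow rates after 5 min equilibration, mean of at least three readings.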
[1] = 222 ± 5 mg/mL mAb, pH 7.0, 0.25M agent, 25° C.
[2] = 225 ± 5 mg/mL mAb, pH 7.0, 0.25M agent, 20° C.
[3] = 225 ± 5 mg/mL mAb, pH 7.0, 0.25M agent, 25° C.
[4] = 225 ± 5 mg/mL mAb, pH 7.0, 0.25M agent, 30° C.
[5] = 200 ± 5 mg/mL mAb, pH 7.0, 25° C., [Salt] 0.25 M of anion, C & P viscometer
[6] = 200 ± 5 mg/mL mAb, pH 7.0, 25° C., [Salt] […] of anion, C & P viscometer
[7] = 229 mg/mL mAb, […] agent, pH 7.0, 25° C., microfluidic
[8] = 221 mg/mL mAb, […] agent, pH 7.0, 25° C., microfluidic
[9] = 230 mg/mL mAb, agent […], 25° C.
[10] = 228 ± 5 mg/mL mAb, agent 0.25 M, 25° C., pH 7.0
[11] = 200 ± 5 mg/mL mAb, pH 7.0, 25° C., [Salt] 0.35 M of anion, C & P viscometer

Cc1nccn1CCCN.Cl.Cl [APMI*2HCl, 1-(3-aminopropyl)-2-methyl-1H-imidazole dihydrochloride]
Viscosity-lowering effect as a function of agent concentration (biosimilar AVASTIN®; 0.10 vs 0.25 M APMI*2HCl, FIG. 7): viscosity-lowering effect was increased

C[C@H]1[C@H](NC(=O)/C(=N\OC(C)(C)C(=O)O)c2csc(N)n2)C(=O)N1S(=O)(=O)O [Aztreonam, reference compound]
Viscosity (biosimilar ERBITUX®; 179 mg/mL mAb, 0.02M agent, 25° C.): 256 ± 4 cP

NCCCC[C@H](N)C(=O)O.O=S(=O)(O)c1ccccc1 [BSAL, benzenesulfonic acid lysine]
Viscosity (biosimilar AVASTIN®; 230 ± 5 mg/mL mAb, pH 7.0, […], 20° C.): 395 ± 3 cP
Viscosity (biosimilar AVASTIN®; 230 ± 5 mg/mL mAb, pH 7.0, […], 25° C.): 227 ± 5 cP
Viscosity (biosimilar ERBITUX®; [1]): 126 ± 1 cP
Viscosity (biosimilar ERBITUX®; [2]): 193 ± 0 cP
Viscosity (biosimilar ERBITUX®; [3]): 126 ± 1 cP
Viscosity (biosimilar ERBITUX®; [4]): 89.8 ± 0.8 cP

N=C(N)NCCC[C@H](N)C(=O)O.O=C(O)c1ccccc1 [Benzoic acid arginine]
Viscosity (biosimilar AVASTIN®; [5]): 51.4 ± 0.5 cP
Viscosity (biosimilar AVASTIN®; [6]): 52.2 ± 0.5 cP

CC1(C)C2CCC1(CS(=O)(=O)O)C(=O)C2.OCCN(CCO)CCO (stereo not shown) [CSA Triethanolamine]
Viscosity (biosimilar AVASTIN®; 238 mg/mL mAb, agent […], 25° C.): 144 ± 1 cP

CC1(C)C2CCC1(CS(=O)(=O)O)C(=O)C2.N=C(N)NOCC[C@H](N)C(=O)O (stereo not shown) [CSA canavanine]
Viscosity (biosimilar AVASTIN®; [5]): 75.6 ± 3.0 cP
Viscosity (biosimilar AVASTIN®; [6]): 60.5 ± 0.6 cP

CC1(C)C2CCC1(CS(=O)(=O)O)C(=O)C2.Nc1ccncc1 (stereo not shown) [CSA-4-aminopyridine]
Viscosity (biosimilar AVASTIN®; [7]): 86.4 ± 1.1 cP
Viscosity (biosimilar RITUXAN®; 195 mg/mL mAb): 47.0 ± 1.4 cP
Viscosity (biosimilar RITUXAN®; 233 mg/mL mAb): 66.5 ± 0.8 cP

Cc1nnc(SCC2=C(C(=O)O)N3C(=O)[C@@H](NC(=O)Cn4cnnn4)[C@H]3SC2)s1 [Cefazolin, reference compound]
Viscosity (biosimilar AVASTIN®; [7]): 60.6 ± 1 cP
Viscosity (biosimilar RITUXAN®; 206 mg/mL mAb): 65.1 ± 1.8 cP

CO[C@@]1(NC(=O)Cc2cccs2)C(=O)N2C(C(=O)O)=C(COC(N)=O)CS[C@@H]21 [Cefoxitin sodium salt, reference compound]
Viscosity (biosimilar ERBITUX®; 194 mg/mL mAb, […] agent, 25° C.): 166 ± 8 cP

Nc1ccn(C[C@@H](CO)OCP(=O)(O)O)c(=O)n1 [Cidofovir hydrate, reference compound]
Viscosity (biosimilar AVASTIN®; 210 mg/mL mAb, agent 0.02M, 25° C.): 121 ± 2 cP
Viscosity (biosimilar ERBITUX®; 189 mg/mL mAb, 0.02M agent, 25° C.): 284 ± 5 cP

O=C1NC(c2ccccc2)(c2ccccc2)C(=O)N1COP(=O)(O)O [Fosphenytoin disodium salt, reference compound]
Viscosity (biosimilar ERBITUX®; 188 mg/mL mAb, […] agent, 25° C.): 119 ± 2 cP

NC(CO)(CO)CO.O=C[C@H](O)[C@@H](O)[C@H](O)[C@H](O)C(=O)O [Glucuronic acid-tris]
Viscosity (biosimilar AVASTIN®; [8]): 151 ± 5 cP
Viscosity (biosimilar AVASTIN®; 221 mg/mL mAb, […] agent, pH 7.0, 25° C., microfluidic, listed as Glucuronic acid-Tris): 151 ± 5.0 cP
Viscosity (biosimilar RITUXAN®; 207 mg/mL mAb): 149 ± 13 cP

CCN(CC)CC(=O)Nc1c(C)cccc1C [Lidocaine HCl, reference compound]
Viscosity (biosimilar AVASTIN®; 218 mg/mL mAb, agent […], 25° C.): 147 ± 15 cP
Viscosity (biosimilar AVASTIN®; 237 mg/mL mAb, agent […], 25° C.): 97.3 ± 1.8 cP
Viscosity (biosimilar ERBITUX®; 223 mg/mL mAb, […] agent, 25° C.): 33.8 ± 0.4 cP

NCCCC[C@H](N)C(=O)O [Lysine•HCl, reference compound]
Viscosity (biosimilar AVASTIN®; [5]): 137 ± 2 cP
Viscosity (biosimilar ERBITUX®; [1]): 128 ± 2 cP
Fold Reduction (biosimilar ERBITUX®; [1]): 8.8 fold

CS(=O)(=O)O.N=C(N)NCCC[C@H](N)C(=O)O [MSA arginine]
Viscosity (biosimilar AVASTIN®; [5]): 93.1 ± 0.9 cP

Cc1cccc(C)c1NC(=O)C1CCCCN1C (stereo not shown) [Mepivacaine HCl, reference compound]
Viscosity (biosimilar AVASTIN®; 223 mg/mL mAb, agent […], 25° C.): 129 ± 3 cP
Viscosity (biosimilar RITUXAN®; 185 mg/mL mAb): 46.8 ± 0.6 cP

CCN(CC)CCNC(=O)c1cc(Cl)c(N)cc1OC [Metoclopramide HCl, reference compound]
Viscosity (biosimilar AVASTIN®; [9]): 64.4 ± 1.6 cP
Viscosity (biosimilar RITUXAN®; 194 mg/mL mAb): 39.3 ± 0.4 cP

COc1c(N2C[C@@H]3CCCN[C@@H]3C2)c(F)cc2c(=O)c(C(=O)O)cn(C3CC3)c12 [Moxifloxacin HCl, reference compound]
Viscosity (biosimilar ERBITUX®; 186 mg/mL mAb, […] agent, 25° C.): 66.7 ± 1.0 cP

Cl.[Cl-].c1cc[n+](-c2ccncc2)cc1 [N-(4-Pyridiyl)pyridinium Cl HCl]
Viscosity (biosimilar AVASTIN®; [8]): 68.5 ± 1.1 cP

[Cl-].[Na+] [NaCl, reference compound]
Viscosity (biosimilar AVASTIN®; [5]): 121 ± 8 cP

NC(=O)c1cccnc1 [Nicotinamide]
Viscosity (biosimilar ERBITUX®; 232 mg/mL mAb, […] agent, 25° C.): 292 ± 10 cP

CNC[C@H](O)c1cccc(O)c1 [Phenylephrine HCl, reference compound]
Viscosity (biosimilar AVASTIN®; 201 mg/mL mAb, agent […], 25° C.): 108 ± 1 cP
Viscosity (biosimilar ERBITUX®; 183 mg/mL mAb, […] agent, 25° C.): 54.1 ± 2.9 cP

CCN1CCN(C(=O)N[C@@H](C(=O)N[C@@H]2C(=O)N3[C@@H]2SC(C)(C)[C@@H]3C(=O)O)c2ccccc2)C(=O)C1=O [Piperacillin sodium salt, reference compound]
Viscosity (biosimilar AVASTIN®; 206 mg/mL mAb, agent […], 25° C.): 197 ± 5 cP
Viscosity (biosimilar RITUXAN®; 194 mg/mL mAb): 127 ± 2 cP

Cc1ncc(CO)c(CO)c1O [Pyridoxine]
Viscosity (biosimilar AVASTIN®; 227 mg/mL mAb, agent […], 25° C.): 107 ± 0 cP

ClC=CC[N+]12CN3CN(CN(C3)C1)C2.[Cl-] [Quaternium 15]
Viscosity (biosimilar RITUXAN®; 221 mg/mL mAb): 135 ± 5 cP

Cc1cc2nc3c(=O)[nH]c(=O)nc-3n(C[C@H](O)[C@H](O)[C@H](O)COP(=O)([O-])O)c2cc1C.[Na+] [Riboflavin-5-phosphate]
Viscosity (biosimilar AVASTIN®; 225 mg/mL mAb, agent […], 25° C.): 131 ± 4 cP
Viscosity (biosimilar ERBITUX®; 237 mg/mL mAb, 0.10M agent, 25° C.): 492 ± 9 cP

OC[C@H]1O[C@H](O[C@]2(CCl)O[C@H](CCl)[C@@H](O)[C@@H]2O)[C@H](O)[C@@H](O)[C@H]1Cl [Sucralose]
Viscosity (biosimilar AVASTIN®; [9]): 147 ± 4 cP
Viscosity (biosimilar RITUXAN®; 234 mg/mL mAb): 111 ± 8 cP

CC(=O)[N-]S(=O)(=O)c1ccc(N)cc1.[Na+] [Sulfacetamide-Na, reference compound]
Viscosity (biosimilar AVASTIN®; 214 mg/mL mAb, agent […], 25° C.): 113 ± 1 cP

CNS(=O)(=O)Cc1ccc2[nH]cc(CCN(C)C)c2c1 [Sumatriptan Succinate, reference compound]
Viscosity (biosimilar AVASTIN®; 212 mg/mL mAb, agent 0.25M, 25° C.): 93.2 ± 2.7 cP

CSA 1-(3-aminopropyl)-2-methyl-1H-imidazole [CSAAPMI-2HCl]
Viscosity (biosimilar AVASTIN®; 210 mg/mL mAb, 0.25 M agent, 25° C., pH 7.0): 40.9 ± 0.5 cP
Viscosity (biosimilar AVASTIN®; [10]): 71.8 ± 3.2 cP

CSA betaine
Viscosity (biosimilar AVASTIN®; [5]): 66.0 ± 0.7 cP

CSA carnitine
Viscosity (biosimilar AVASTIN®; [5]): 72.4 ± 1.7 cP

CSA dimethylpiperazine
Viscosity (biosimilar AVASTIN®; [5]): 47.4 ± 1.3 cP
Viscosity (biosimilar AVASTIN®; [11]): 51.7 ± 0.9 cP

CSAthiamine-2NaCl
Viscosity (biosimilar AVASTIN®; 228 ± 5 mg/mL mAb, agent […], 25° C., pH 7.0): 83.7 ± 2.2 cP
Viscosity reduction (biosimilar AVASTIN®; ~230 mg/mL mAb, vs PB, Table 12): approximately 5 fold

Chlorotheophylline arginine
Viscosity (biosimilar AVASTIN®; [5]): 104.5 ± 6.5 cP

Ethandisulfonate diarginine
Viscosity (biosimilar AVASTIN®; [5]): 105 ± 4 cP
Viscosity (biosimilar AVASTIN®; [6]): 77.1 ± 0.3 cP

Sulfosalicylic acid dilysine
Viscosity (biosimilar AVASTIN®; [10]): 73.4 ± 0.4 cP

Toluenesulfonic acid arginine
Viscosity (biosimilar AVASTIN®; [5]): 159 ± 5 cP

Toluenesulfonic acid lysine
Viscosity (biosimilar AVASTIN®; [5]): 118 ± 1 cP

diCSA cadaverine
Viscosity (biosimilar AVASTIN®; [5]): 85.5 ± 5.2 cP
Viscosity (biosimilar AVASTIN®; [11]): 65.6 ± 1.6 cP

naphthalenesulfonic acid arginine [NSAA]
Viscosity (biosimilar ERBITUX®; [1]): 69.4 ± 0.6 cP
Viscosity (biosimilar ERBITUX®; [2]): 103 ± 0 cP
Viscosity (biosimilar ERBITUX®; [3]): 69.4 ± 0.6 cP
Viscosity (biosimilar ERBITUX®; [4]): 60.9 ± 4.3 cP
Fold Reduction (biosimilar ERBITUX®; [1]): 16.3 fold
